Experimental data: paper PMC4406737, “Meroterpenoid Chrodrimanins Are Selective and Potent Blockers of Insect GABA-Gated Chloride Channels” (PLoS ONE, 2015)

Columns and labels:
[1] = target: T1, B. mori GABAR RDL (wild-type isoform, exon 3b and exon 6d) (Bombyx mori, UniProt U3TMA1); test: two-electrode voltage clamp, Xenopus oocytes, agonist concentration-response; assay type: cell-based
T1 construct: full cDNA in pcDNA3.1, cRNA expressed in Xenopus laevis oocytes; RDL injected alone (homomer)
T1 sequence (U3TMA1 29-482): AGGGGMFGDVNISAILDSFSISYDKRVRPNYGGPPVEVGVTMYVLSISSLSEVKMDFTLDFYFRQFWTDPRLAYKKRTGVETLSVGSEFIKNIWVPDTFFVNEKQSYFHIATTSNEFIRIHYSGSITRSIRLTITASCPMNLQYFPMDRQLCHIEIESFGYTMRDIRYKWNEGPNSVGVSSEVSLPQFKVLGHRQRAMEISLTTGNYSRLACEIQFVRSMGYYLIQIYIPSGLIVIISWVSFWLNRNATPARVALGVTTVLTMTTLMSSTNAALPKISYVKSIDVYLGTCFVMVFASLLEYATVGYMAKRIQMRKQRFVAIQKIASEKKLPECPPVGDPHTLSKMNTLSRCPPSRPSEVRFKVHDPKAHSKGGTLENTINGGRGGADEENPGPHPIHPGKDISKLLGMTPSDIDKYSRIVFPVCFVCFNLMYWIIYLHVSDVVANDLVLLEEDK

[2] = target: T1, B. mori GABAR RDL (wild-type isoform, exon 3b and exon 6d); test: two-electrode voltage clamp, Xenopus oocytes, block of GABA peak current; assay type: cell-based

Structure (SMILES) | EC50 [1] [µM] | IC50 [2] [µM]
NCCCC(=O)O [GABA] | 41.1 | 
N#Cc1nn(-c2c(Cl)cc(C(F)(F)F)cc2Cl)c(N)c1[S+]([O-])C(F)(F)F (centres unmarked) [fipronil] |  | 0.0394
